Laboratory results taken from US7919488B2, “Therapeutic compounds” (Pfizer Inc., priority 2006, dated 2011).

Experiments:
Type in all cases: biochemical
CYP3A4 [1] = target: T1, CYP3A4 (Homo sapiens, UniProt P08684); assay: IC50 against CYP3A4 by inhibition of testosterone metabolism in human liver microsomes; conditions: 0.1 mg/mL human liver microsomes, 25 μM testosterone, 1 mM NADPH, 6-β-OH-testosterone production, eight minutes; read-out: IC50, μM (HLM, testosterone)
T1 construct: 0.1 mg/mL human liver microsomes; from tissue; host or cells: human liver microsomes
Summary of the method: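 Testosterone used as substrate, incubated for eight minutes. 6-β-OH-testosterone formation quantified by LC-MS/MS (MRM) as peak area ratio to internal standard against a metabolite standard curve. IC50 derived from inhibition of this metabolism.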

[2] = target: T2, recombinant CYP3A4+b5 enzyme (Supersomes®) (Homo sapiens, UniProt P08684); assay: Kiapp against recombinant CYP3A4 enzyme (Supersomes), BFC substrate; conditions: recombinant CYP3A4+b5 (BD Biosciences), 5 uM BFC, 200 uM NADPH, pre-incubation at least 30 minutes, pH 7.0, room temperature
T2 construct: purchased BD Biosciences (Woburn, Mass.)
Procedure: 1. Determination of Compound Kiapp
A determination of the Kiapp of the compounds of the invention against recombinant CYP3A4 enzyme was performed as follows. The assay was performed in a 100 mM sodium phosphate buffer pH 7.0, 5 mM TCEP and containing 2% dimethylformamide (final concentration) upon addition of substrate and inhibitor. A typical reaction for the determination of Kiapp values was carried at room temperature in a solid black Costar u-bottom 96-well polypropylene plate. In each well, recombinant CYP3A4 enzyme (5.5 nM or 8 nM, final concentration depending on the commercial source of the enzyme) was pre-incubated in the presence of the inhibitor for at least 30 minutes in the assay buffer. When pre-incubation was completed (˜30 min), the reaction was initiated by adding NADPH (200 uM, final concentration), and 7-benzyloxy-4-(trifluoromethyl)-coumarin (BFC) (5 uM, final concentration). The oxidation of the coumarin substrate was recorded by a 96-well plate reader POLARstar (BMG LABTECH, Offenburg, Germany).
The initial reaction velocities were measured during the first 5 min of the reaction when the release of the fluorescent product is linear with time, in the absence and in the presence of various concentrations of inhibitors. For non-partial & partial inhibitors, the Kiapp values were determined by using the equation for tight-binding inhibitor developed by Morrison, J F (Morrison J F. Biochim Biophys Acta. 1969, 185: 269-86) and by Szedlaseck S E et al. (Szedlascek, S. E., Ostafe, V., Serban, M., and Vlad, M. O. Biochem. J. 1988, 254:311-312), respectively.
The fluorescent substrate BFC was purchased from Sigma (St Louis, Mo.). Two commercial sources of recombinant enzymes were used in this study: recombinant CYP3A4-b5 enzyme (Baculosomes®) was purchased from Invitrogen (Carlsbad, Calif.) and the recombinant CYP3A4+b5 enzyme (Supersomes®) was purchased from BD Biosciences (Woburn, Mass.).

[3] = target: T3, recombinant CYP3A4-b5 enzyme (Baculosomes®) (Homo sapiens, UniProt P08684); assay: Kiapp against recombinant CYP3A4 enzyme (Baculosomes), BFC substrate; conditions: recombinant CYP3A4-b5 (Invitrogen), 5 uM BFC, 200 uM NADPH, pre-incubation at least 30 minutes, pH 7.0, room temperature
T3 construct: purchased Invitrogen (Carlsbad, Calif.)
Summary of the method: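 Recombinant CYP3A4-b5 Baculosomes were run in 100 mM sodium phosphate pH 7.0 with 5 mM TCEP and 2% DMF at room temperature, with ~30 min pre-incubation. The reaction was started with NADPH (200 uM) and BFC (5 uM), both final. Kiapp came from initial fluorescence velocities over the first 5 min across inhibitor concentrations.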

CYP3A4 [4] = target: T1, CYP3A4; assay: IC50 against CYP3A4 by inhibition of midazolam metabolism in human liver microsomes; conditions: 0.1 mg/mL human liver microsomes, 2 μM midazolam, 1 mM NADPH, 1-hydroxymidazolam production, eight minutes; read-out: IC50, μM (HLM, midazolam)
Summary of the method: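 Human liver microsomes (0.1 mg/mL) incubated 8 min with 2 μM midazolam and 1 mM NADPH in 100 mM potassium phosphate, pH 7.4. 1-Hydroxymidazolam quantified by LC-MS/MS (MRM) as peak area ratio to internal standard against a metabolite standard curve.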

T2 sequence (P08684 2-503 limits assumed): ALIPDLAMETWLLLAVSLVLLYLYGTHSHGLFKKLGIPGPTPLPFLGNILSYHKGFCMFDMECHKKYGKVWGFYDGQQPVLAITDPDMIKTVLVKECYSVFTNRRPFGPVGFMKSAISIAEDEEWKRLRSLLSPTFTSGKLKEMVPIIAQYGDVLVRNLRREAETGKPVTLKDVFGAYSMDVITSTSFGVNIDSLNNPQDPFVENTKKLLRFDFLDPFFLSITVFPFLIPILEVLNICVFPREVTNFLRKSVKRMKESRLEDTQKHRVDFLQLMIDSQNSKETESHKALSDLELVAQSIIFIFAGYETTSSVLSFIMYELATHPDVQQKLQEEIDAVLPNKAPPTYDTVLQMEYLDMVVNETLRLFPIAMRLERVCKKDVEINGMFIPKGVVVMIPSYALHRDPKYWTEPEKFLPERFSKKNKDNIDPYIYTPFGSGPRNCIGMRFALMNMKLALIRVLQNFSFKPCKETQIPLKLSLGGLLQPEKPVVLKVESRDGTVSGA
T1 sequence (P08684 whole entry): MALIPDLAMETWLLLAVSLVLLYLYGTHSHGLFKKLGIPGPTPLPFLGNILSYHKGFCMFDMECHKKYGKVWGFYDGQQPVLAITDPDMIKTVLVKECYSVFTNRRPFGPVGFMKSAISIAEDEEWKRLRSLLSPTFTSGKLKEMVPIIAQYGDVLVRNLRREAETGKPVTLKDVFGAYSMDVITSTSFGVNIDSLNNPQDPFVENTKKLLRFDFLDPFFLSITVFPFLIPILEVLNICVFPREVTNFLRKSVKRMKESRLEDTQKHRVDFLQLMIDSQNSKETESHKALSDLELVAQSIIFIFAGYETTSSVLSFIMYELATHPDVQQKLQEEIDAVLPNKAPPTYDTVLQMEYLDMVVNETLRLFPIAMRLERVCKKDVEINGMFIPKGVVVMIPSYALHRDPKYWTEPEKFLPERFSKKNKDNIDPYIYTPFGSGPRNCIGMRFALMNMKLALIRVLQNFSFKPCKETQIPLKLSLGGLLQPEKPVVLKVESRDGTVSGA
T3 sequence (P08684 whole entry): as above

| SMILES | IC50 (CYP3A4 [1]) [µM] | Ki [2] [µM] | Ki [3] [µM] | IC50 (CYP3A4 [4]) [µM] |
| --- | --- | --- | --- | --- |
| O=C(Cn1nc(-c2ccncc2)cc1Cc1ccc(F)cc1)N1CC(N2CCOCC2)C1 [Example 121, 4-(1-{[5-(4-fluorobenzyl)-3-pyridin-4-yl-1H-pyrazol-1-yl]acetyl}azetidin-3-yl)morpholine] | 0.088 | 0.0136 | 0.0978 | 0.045 |
| O=C(Cn1nc(-c2ccncc2)cc1Cc1ccc(F)cc1)N1CCC(N2CCOCC2)CC1 [Example 137, 4-(1-{[5-(4-fluorobenzyl)-3-pyridin-4-yl-1H-pyrazol-1-yl]acetyl}piperidin-4-yl)morpholine] | 0.031 | 0.0036 | 0.0129 | 0.0101 |
| Fc1ccc(Cc2cc(-c3ccncc3)n[nH]2)cc1 [Example 1, 4-[5-(4-fluorobenzyl)-1H-pyrazol-3-yl]pyridine] | < 0.022 | 0.0064 | 0.0557 | 0.077 |
| CNC1CCN(C(=O)Cn2nc(-c3ccncc3)cc2Cc2ccc(F)cc2)CC1 [Example 7, 1-{[5-(4-fluorobenzyl)-3-pyridin-4-yl-1H-pyrazol-1-yl]acetyl}-N-methylpiperidin-4-amine] | 0.105 | 0.033 | 0.196 | 0.073 |
| O=C(Cn1nc(-c2ccncc2)cc1Cc1ccc(F)cc1)N1CCC(N2CCCCC2=O)CC1 [Example 136, 1′-{[5-(4-fluorobenzyl)-3-pyridin-4-yl-1H-pyrazol-1-yl]acetyl}-1,4′-bipiperidin-2-one] | 0.023 | 0.0119 | 0.0291 | < 0.00833 |
| CS(=O)(=O)NC1CCN(C(=O)Cn2nc(-c3c[nH]cn3)cc2Cc2ccc(F)cc2)CC1 [Example 119, N-(1-{2-[5-(4-fluorobenzyl)-3-(1H-imidazol-4-yl)-1H-pyrazol-1-yl]acetyl}piperidin-4-yl)methanesulfonamide] | > 0.75 | 0.166 | 0.314 | 0.167 |
| O=C(Cn1nc(-c2ccncc2)cc1Cc1ccc(F)cc1)N1CCC(N2CCOC2=O)CC1 [Example 118, 3-(1-{[5-(4-fluorobenzyl)-3-pyridin-4-yl-1H-pyrazol-1-yl]acetyl}piperidin-4-yl)-1,3-oxazolidin-2-one] | 0.013 | 0.0065 | 0.0442 | 0.00837 |
